Patent US11000033B2, “Ketone or oxime compound, and herbicide” (NISSAN CHEMICAL CORPORATION, priority 2014, dated 2021)

How the values were obtained:
Format in all cases: in vivo
Leptochloa chinensis = experiment: Test Example 3: herbicidal effect by foliage application, Wagner pot (symbol D); conditions: application herbicide amount 320 g/ha
Outline: (§1)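 Scoring took place 3 weeks after application, using fixed criteria. Plants had been raised from seed for 14 days at 25 to 30 °C in submerged alluvial soil before a diluted emulsion of the test compound was sprayed uniformly on the leaves.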

Cyperus difformis = experiment: Test Example 3: herbicidal effect by foliage application, Wagner pot (symbol E); conditions: application herbicide amount 320 g/ha
Outline: as §1

[1] = system: directly sowed rice plant; experiment: Test Example 3: effect on crop by foliage application, Wagner pot (symbol b); conditions: application herbicide amount 320 g/ha
Outline: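 Wagner pot (1/10000 are), alluvial soil, submerged 0.1–0.5 cm; sown E. crus-galli var. crus-galli, L. chinensis, C. difformis, rice; greenhouse 25–30 °C.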

Digitaria ciliaris = experiment: Test Example 4: herbicidal effect by soil treatment (symbol F); conditions: application herbicide amount 320 g/ha
Outline: (§2)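 Seeds were sown in sterilized diluvial soil, covered with about 1.5 cm of soil, and the soil surface was sprayed with a water-diluted emulsion of the compound at a predetermined rate. Plants grew in a greenhouse at 25° C. to 30° C.; effects were scored visually 3 weeks after application.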

[2] = system: Echinochloa crus-galli var. crus-galli; experiment: Test Example 4: herbicidal effect by soil treatment (symbol H); conditions: application herbicide amount 320 g/ha
Outline: as §2

Lolium multiflorum Lam. [3] = experiment: Test Example 4: herbicidal effect by soil treatment (symbol K); conditions: application herbicide amount 320 g/ha
Outline: as §2

Abutilon theophrasti [4] = experiment: Test Example 4: herbicidal effect by soil treatment (symbol M); conditions: application herbicide amount 320 g/ha
Outline: as §2

Amaranthus retroflexus = experiment: Test Example 4: herbicidal effect by soil treatment (symbol N); conditions: application herbicide amount 320 g/ha
Outline: as §2

corn [5] = experiment: Test Example 4: effect on crop by soil treatment (symbol c); conditions: application herbicide amount 320 g/ha
Outline: (§3)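 Sterilized diluvial soil, spot sowing, ~1.5 cm soil cover; greenhouse 25–30° C.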

soybean = experiment: Test Example 4: effect on crop by soil treatment (symbol d); conditions: application herbicide amount 320 g/ha
Outline: as §3

Setaria viridis = experiment: Test Example 5: herbicidal effect by foliage application, plastic box (symbol G); conditions: 320 g/ha, 3 weeks after application
Outline: (§4)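 Post-emergence spray; diluvial soil (sterilized), ~1.5 cm seed cover; greenhouse 25–30° C; 14-day-old plants; water-diluted emulsion at predetermined dose; visual score at 3 wk post-treatment.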

Avena fatua = experiment: Test Example 5: herbicidal effect by foliage application, plastic box (symbol I); conditions: 320 g/ha, 3 weeks after application
Outline: as §4

Lolium multiflorum Lam. [6] = experiment: Test Example 5: herbicidal effect by foliage application, plastic box (symbol K); conditions: 320 g/ha, 3 weeks after application
Outline: as §4

Apera spica-venti = experiment: Test Example 5: herbicidal effect by foliage application, plastic box (symbol L); conditions: 320 g/ha, 3 weeks after application
Outline: as §4

Abutilon theophrasti [7] = experiment: Test Example 5: herbicidal effect by foliage application, plastic box (symbol M); conditions: 320 g/ha, 3 weeks after application
Outline: as §4

Chenopodium album = experiment: Test Example 5: herbicidal effect by foliage application, plastic box (symbol O); conditions: 320 g/ha, 3 weeks after application
Outline: as §4

corn [8] = experiment: Test Example 5: effect on crop by foliage application, plastic box (symbol c); conditions: 320 g/ha, 3 weeks after application
Outline: (§5)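 Greenhouse culture at 25° C. to 30° C. followed spot-like sowing into sterilized diluvial soil, with seed covered by roughly 1.5 cm of soil.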

wheat = experiment: Test Example 5: effect on crop by foliage application, plastic box (symbol e); conditions: 320 g/ha, 3 weeks after application
Outline: as §5

beet = experiment: Test Example 5: effect on crop by foliage application, plastic box (symbol f); conditions: 320 g/ha, 3 weeks after application
Outline: as §5

rapeseed = experiment: Test Example 5: effect on crop by foliage application, plastic box (symbol g); conditions: 320 g/ha, 3 weeks after application
Outline: as §5

Stellaria media = experiment: Test Example 5: herbicidal effect by foliage application, plastic box (symbol P); conditions: 320 g/ha, 3 weeks after application
Outline: as §4

SMILES | herbicidal effect on D (Leptochloa chinensis), grade 0-5 (Leptochloa chinensis) | herbicidal effect on E, grade 0-5 (Cyperus difformis) | effect on crop b (directly sowed rice plant), grade 0-5 [1] | G: Setaria viridis, herbicidal effect grade (Setaria viridis) | I: Avena fatua, herbicidal effect grade (Avena fatua) | K: Lolium multiflorum Lam., herbicidal effect grade (Lolium multiflorum Lam. [6]) | L: Apera spica-venti, herbicidal effect grade (Apera spica-venti) | M: Abutilon theophrasti, herbicidal effect grade (Abutilon theophrasti [7]) | O: Chenopodium album, herbicidal effect grade (Chenopodium album) | c: corn, effect on crop grade (corn [8]) | e: wheat, effect on crop grade (wheat) | f: beet, effect on crop grade (beet) | g: rapeseed, effect on crop grade (rapeseed) | F: Digitaria ciliaris, herbicidal effect grade (Digitaria ciliaris) | H: Echinochloa crus-galli var. crus-galli, herbicidal effect grade [2] | K: Lolium multiflorum Lam., herbicidal effect grade (Lolium multiflorum Lam. [3]) | M: Abutilon theophrasti, herbicidal effect grade (Abutilon theophrasti [4]) | N: Amaranthus retroflexus, herbicidal effect grade (Amaranthus retroflexus) | c: corn, effect on crop grade (corn [5]) | d: soybean, effect on crop grade (soybean) | also measured
CON=C(C)CC1CC(OCC(=O)OC)=C(c2c(C)cc(C)cc2C)C1=O (centres unmarked) [1-012] | 0 (Herbicidal ratio of 5% or lower (almost no effect)) | 0 (Herbicidal ratio of 5% or lower (almost no effect)) | 0 (Herbicidal ratio of 5% or lower (almost no effect)) | 0 (Herbicidal ratio of 5% or lower (almost no effect)) | 0 (Herbicidal ratio of 5% or lower (almost no effect)) | 0 (Herbicidal ratio of 5% or lower (almost no effect)) | 0 (Herbicidal ratio of 5% or lower (almost no effect)) | 0 (Herbicidal ratio of 5% or lower (almost no effect)) | 0 (Herbicidal ratio of 5% or lower (almost no effect)) | 0 (Herbicidal ratio of 5% or lower (almost no effect)) | 0 (Herbicidal ratio of 5% or lower (almost no effect)) | 0 (Herbicidal ratio of 5% or lower (almost no effect)) | 0 (Herbicidal ratio of 5% or lower (almost no effect)) | – | – | – | – | – | – | – | F (Digitaria ciliaris) herbicidal effect grade (Digitaria ciliaris): 0 (Herbicidal ratio of 5% or lower (almost no effect)); H (Echinochloa crus-galli var. crus-galli) herbicidal effect grade [2]: 0 (Herbicidal ratio of 5% or lower (almost no effect)); K (Lolium multiflorum Lam.) herbicidal effect grade (Lolium multiflorum Lam. [3]): 0 (Herbicidal ratio of 5% or lower (almost no effect)); M (Abutilon theophrasti) herbicidal effect grade (Abutilon theophrasti [4]): 0 (Herbicidal ratio of 5% or lower (almost no effect)); N (Amaranthus retroflexus) herbicidal effect grade (Amaranthus retroflexus): 0 (Herbicidal ratio of 5% or lower (almost no effect)); c (corn) effect on crop grade (corn [5]): 0 (Herbicidal ratio of 5% or lower (almost no effect)); d (soybean) effect on crop grade (soybean): 0 (Herbicidal ratio of 5% or lower (almost no effect))
CCC(=O)CC1CC(O)=C(c2c(C)cc(C)cc2C)C1=O (centres unmarked) [2-006] | – | 5 (Herbicidal ratio of 90% or more (almost completely withered)) | 5 (Herbicidal ratio of 90% or more (almost completely withered)) | 3 (Herbicidal ratio of 40% or higher and lower than 70%) | 3 (Herbicidal ratio of 40% or higher and lower than 70%) | 5 (Herbicidal ratio of 90% or more (almost completely withered)) | 3 (Herbicidal ratio of 40% or higher and lower than 70%) | 0 (Herbicidal ratio of 5% or lower (almost no effect)) | 0 (Herbicidal ratio of 5% or lower (almost no effect)) | 0 (Herbicidal ratio of 5% or lower (almost no effect)) | 0 (Herbicidal ratio of 5% or lower (almost no effect)) | 0 (Herbicidal ratio of 5% or lower (almost no effect)) | 0 (Herbicidal ratio of 5% or lower (almost no effect)) | 5 (Herbicidal ratio of 90% or more (almost completely withered)) | 5 (Herbicidal ratio of 90% or more (almost completely withered)) | 5 (Herbicidal ratio of 90% or more (almost completely withered)) | 4 (Herbicidal ratio of 70% or higher and lower than 90%) | 0 (Herbicidal ratio of 5% or lower (almost no effect)) | 2 (Herbicidal ratio of 20% or higher and lower than 40%) | 0 (Herbicidal ratio of 5% or lower (almost no effect)) | P: Stellaria media, herbicidal effect grade (Stellaria media): 0 (Herbicidal ratio of 5% or lower (almost no effect))
CCc1cc(Br)cc(C)c1C1=C(O)CC(CC(C)=NOC)C1=O (centres unmarked) [6-001] | 5 (Herbicidal ratio of 90% or more (almost completely withered)) | 0 (Herbicidal ratio of 5% or lower (almost no effect)) | 5 (Herbicidal ratio of 90% or more (almost completely withered)) | 5 (Herbicidal ratio of 90% or more (almost completely withered)) | 5 (Herbicidal ratio of 90% or more (almost completely withered)) | 5 (Herbicidal ratio of 90% or more (almost completely withered)) | 5 (Herbicidal ratio of 90% or more (almost completely withered)) | 0 (Herbicidal ratio of 5% or lower (almost no effect)) | 0 (Herbicidal ratio of 5% or lower (almost no effect)) | 5 (Herbicidal ratio of 90% or more (almost completely withered)) | 5 (Herbicidal ratio of 90% or more (almost completely withered)) | 0 (Herbicidal ratio of 5% or lower (almost no effect)) | 2 (Herbicidal ratio of 20% or higher and lower than 40%) | 5 (Herbicidal ratio of 90% or more (almost completely withered)) | 5 (Herbicidal ratio of 90% or more (almost completely withered)) | 5 (Herbicidal ratio of 90% or more (almost completely withered)) | 0 (Herbicidal ratio of 5% or lower (almost no effect)) | 0 (Herbicidal ratio of 5% or lower (almost no effect)) | 5 (Herbicidal ratio of 90% or more (almost completely withered)) | 0 (Herbicidal ratio of 5% or lower (almost no effect)) | –
CCc1cc(Br)cc(C)c1C1=C(O)CC(C(C(=O)OC)C(C)=NOC)C1=O (centres unmarked) [6-002] | 4 (Herbicidal ratio of 70% or higher and lower than 90%) | 0 (Herbicidal ratio of 5% or lower (almost no effect)) | 5 (Herbicidal ratio of 90% or more (almost completely withered)) | 5 (Herbicidal ratio of 90% or more (almost completely withered)) | 5 (Herbicidal ratio of 90% or more (almost completely withered)) | 5 (Herbicidal ratio of 90% or more (almost completely withered)) | 5 (Herbicidal ratio of 90% or more (almost completely withered)) | 1 (Herbicidal ratio of 5% or higher and lower than 20%) | 0 (Herbicidal ratio of 5% or lower (almost no effect)) | 5 (Herbicidal ratio of 90% or more (almost completely withered)) | 0 (Herbicidal ratio of 5% or lower (almost no effect)) | 0 (Herbicidal ratio of 5% or lower (almost no effect)) | 0 (Herbicidal ratio of 5% or lower (almost no effect)) | 2 (Herbicidal ratio of 20% or higher and lower than 40%) | 2 (Herbicidal ratio of 20% or higher and lower than 40%) | 5 (Herbicidal ratio of 90% or more (almost completely withered)) | 0 (Herbicidal ratio of 5% or lower (almost no effect)) | 0 (Herbicidal ratio of 5% or lower (almost no effect)) | 0 (Herbicidal ratio of 5% or lower (almost no effect)) | 0 (Herbicidal ratio of 5% or lower (almost no effect)) | –
